We go through one molecule from patent US20230158042A1, “COMBINATION CANCER THERAPY WITH PENTAAZA MACROCYCLIC RING COMPLEX AND HORMONE THERAPY AGENT” (Galera Labs, LLC, priority 2020, published 2023).

Test [1] deals with LNCaP-ENZR cells. The test can be described thus: Clonogenic cell survival in LNCaP-ENZR cells. It counts as cell-based. Conditions: GC4419 20 µM for 5 days, in the presence of ENZ. Here is the method: (§1) FIGS. 21a-21b are a chart and graph showing that pharmacologically mimicking the activity of deacetylated lysine 68 MnSOD with a manganese pentaazamacrocyclic dismutase mimetic both inhibited the growth of LNCaP-ENZR tumors and reversed the enzalutamide resistance in LNCaP-ENZR / LNCaP—MnSOD^K68Q cells and tumors. In FIG. 21a, clonogenic cell survival experiments were performed in LNCaP-ENZR (left two bars) and LNCaP—MnSOD^K68Q (right two bars) treated with ENZ, with or without GC4419 (20 µM) for 5 days. […] Tumor volumes were measured three times a week for 46 days. For each group n=10. Error bars ± 1 SEM. All experiments done in triplicate. **p < 0.01.

The test system of test [2] is LNCaP-MnSOD^K68Q cells. The test can be described thus: Clonogenic cell survival in LNCaP-MnSOD^K68Q cells. Conditions: GC4419 20 µM for 5 days, treated with ENZ. It counts as cell-based. Here is the method:
In FIG. 20a, clonogenic cell survival experiments were done in LNCaP-ENZR cells infected with lenti-MnSOD^K68R or lenti-MnSOD^K68Q, in the presence of ENZ (10 µM). In FIG. 20b, clonogenic survival assays were done in LNCaP cells infected with lenti-MnSOD^WT, lenti-MnSOD^K68R, and lenti-MnSOD^K68Q, and selected with neomycin, and placed in 10 µM of ENZ for 72 hr. Error bars ± 1 SEM. Experiments were done in triplicate. **p < 0.01.
as §1

For test [3], the system named is T47D-HTR cells. The test can be described thus: Ki-67 staining in T47D-HTR cells. It counts as cell-based, human. Conditions: 5 µM GC4419 for 5 days. An excerpt:
With respect to FIG. 16a, the data from FIG. 7i, where MCF7-HTR cells were stained for Ki-67, as well as DAPI, were counted with ImageJ and quantified for average Ki-67 intensity as shown in the bar graph. With respect to FIGS. 16b and 16c, T47D and T47D-HTR cells were stained for Ki-67 as well as DAPI, and particles in the nucleus were counted with ImageJ and quantified for average Ki-67 intensity as shown in the bar graph. In FIGS. 16d and 16e, MCF7-HTR cells, and in FIGS. 16f and 16g, T47D-HTR cells, were treated with 5 µM GC4419 and/or 1 µM 4-hydroxy-Tam for 5 days, and then stained for Ki-67 as well as DAPI. Quantifications of average Ki-67 intensity are shown in the bar graphs. All experiments were done in triplicate. Error bars represent ± 1 SEM. ***p < 0.001. Representative images are shown.
Cells seeded on glass coverslips were fixed in 4% paraformaldehyde and then blocked with 1% BSA and 10% normal goat serum in 1x PBS. Cells were incubated with anti-Ki-67 (c-bioscience) antibody in 1x PBS followed by incubation with goat anti-rabbit IgG conjugated with Alexa Fluor 647 (Invitrogen) in 1x PBS with 5% goat serum. Cells were washed in 1x PBS, mounted, and imaged with a fluorescence microscope. Fluorescence images were captured using a laser scanning confocal microscope (Nikon A1 R). The paired images in all the figures were collected at the same gain and offset settings. […]

Test [4] relates to mice lacking Sirt3. The conditions noted are these: IP injection with 2 mg/kg 30 minutes before IR; cited from earlier work.
For test [5], the system named is T47D-HTR cells. In words: Clonogenic cell survival, hydroxy-Tam-resistant T47D cells with GC4419. It counts as cell-based, human. Conditions: 5 µM GC4419 for 5 days; 1 µM hydroxy-Tam. Here is the method: Clonogenic cell survival assay. For the clonogenic survival analysis, exponentially growing cells were replated using appropriate dilutions, and clonogenic survival was evaluated after 14 days in regular growth medium. Cells were stained with crystal violet, and colonies of >50 cells were counted and utilized to calculate clonogenic survival^46.
To test parameters indicative of oxidative stress, a clonogenic assay with hydroxy-Tam and MnPAM dismutase mimetic treatments was performed. Cells were plated at a density of 50,000 cells per 60-mm dish and treated with 1 µM hydroxy-Tam (Sigma) and 5 µM GC4419 (Galera Therapeutics) for a total of 120 h. This protocol was repeated with a fresh medium change every 24 h for 5 days. On day 6, the cells were trypsinized, counted, and replated in control medium using appropriate dilutions, and clonogenic survival was evaluated.

The test system of test [6] is Sirt3^-/--MT-SIRT3^WT allografts. In words: Sirt3-/--MT-SIRT3^WT mammary allograft tumor growth (bioluminescence). It counts as in vivo. The conditions noted are these: GC4419 by IP every other day for five weeks; compared to control mice. How it is done: FIGS. 29a-29b are plots showing that the growth of murine mammary allograft tumors is inhibited by exposure to the MnSOD mimic GC4419 much more in cells without expression of deacetylation competent SIRT3. […] Mice were subsequently injected with luciferin potassium (120 mg/kg) every week and signal intensity will be quantified. Error bars represent one SD from the mean.
These cell lines were subsequently infected with and selected to express either a SIRT3 wild-type (Sirt3^-/--MT-SIRT3^WT) or deacetylation activity null (Sirt3^-/--MT-SIRT3^DN) gene and a lenti-luciferase to assess tumor growth by bioluminescence. Allograft tumor mice were split into four groups: (1) control, untreated Sirt3^-/--MT-SIRT3^DN; (2) GC4419 treated Sirt3^-/--MT-SIRT3^DN; (3) control, untreated Sirt3^-/--MT-SIRT3^WT; and (4) GC4419 treated Sirt3^-/--MT-SIRT3^WT. […] Accordingly, it was shown that the growth of murine mammary allograft tumors is inhibited by pharmacologically mimicking the activity of deacetylated lysine 68 MnSOD with a manganese pentaazamacrocyclic dismutase mimetic much more in tumors without deacetylation competent SIRT3. Further, this supports that selection of tumors displaying an AcK68 signature could increase response to treatment with a MnPAM dismutase mimetic (or other methods) alone or in combination with other therapies.

For test [7], the system named is MCF7-Cispl-R cells. In words: Cisplatin resistance phenotype of MCF7-Cispl-R cells (clonogenic cell survival). Conditions: treated with GC4419. It counts as cell-based, human. Here is the method: FIGS. 27a-27c are an image and graphs showing that MnSOD—AcK68/ROS/HIF2α dysregulation directs PanR (multi-therapy resistance to cancer therapeutics). […] In FIG. 27b, ROS was measured in MCF7-Cispl-R cells, compared with MCF7 cells, using an Amplex Red assay. In FIG. 27c, MCF7 and MCF7-MnSOD^K68Q cells were measured by clonogenic cell survival assays, without and with cisplatin exposure, and infected with scrambled (C) or HIF2α shRNA. All experiments were done in triplicate. Error bars are ± 1 SEM. * p < 0.05.
To evaluate clonogenic cell survival by testing cell growth at low density, 500 exponentially growing cells were plated in triplicate in 6-well plates using serial dilution, and the growth of the cells was examined throughout 14 days in regular growth medium. Cells were fixed with 70% ethanol for 5 minutes and then stained with 0.5% crystal violet (in 25% methanol) for 20 minutes. Photos of stained plates were taken, and colonies of more than 50 cells were counted and used to calculate clonogenic survival.

In test [8] the test system is MCF7-Cispl-R cells. The test can be described thus: SOX2 and OCT4 levels in cisplatin-resistant MCF7 cells. It counts as cell-based, human. The conditions noted are these: data not shown.

On to `[Cl][Mn][Cl].c1cc2nc(c1)CN[C@H]1CCCC[C@@H]1NCCN[C@H]1CCCC[C@@H]1NC2` [GC4419], for which, in test [1], the “tumor cell survival (clonogenic)” value was “significant decrease in tumor cell survival in the presence of ENZ”. The “ENZR phenotype (clonogenic cell survival)” value in test [2] is recorded as “converted to a sensitive phenotype”. Moreover, in test [3], the “Ki-67 IHC staining” value is “decreased Ki-67 IHC staining”. Moreover, in test [4], the liver damage result is recorded as “attenuated liver damage”. Moreover, the “hydroxy-Tam resistance (clonogenic cell survival)” value in test [5] is listed as “became sensitive to hydroxy-Tam”. The tumor growth entry in test [6] is on record as “little change in tumor growth”. In addition, the Cispl-R phenotype entry in test [7] is recorded as “converted the Cispl-R cells to a sensitive phenotype”. Besides, the “SOX2 and OCT4 levels” value in test [8] is “decreased SOX2 and OCT4 levels”.
